How the values were obtained:
[1] = target: T1, Akt2 (Homo sapiens, UniProt P31751); assay: Akt activation assay (PDK1-mediated activation, LANCE Ultra crosstide TR-FRET), Akt2; format: biochemical; conditions: read-out: Biological Assay 1 IC50 (nM) Akt2
T1 construct: unspecified tag, removed (detagged) (cleaved yes); purchased SignalChem and Proteros (Akt2); Merck Millipore (PDK1) 14-452 (PDK1); none given for Akt2
In short: (§1)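 Human Akt1, Akt2 or Akt3 (SignalChem: 5, 15, 3 nM; Proteros: 5 nM each) was preincubated with compound, then activated by 5 nM PDK1 on PtdIns(3,4,5)P3/DOPS/DOPC vesicles with 100 µM ATP and 100 nM ULight-crosstide (HEPES pH 7.5, 1% DMSO) for 30 min. Product was detected by Eu-anti-phospho-crosstide TR-FRET (665/615 nm), with IC50 from a 4-parameter fit.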

[2] = target: T2, Akt3 (Homo sapiens, UniProt Q9Y243); assay: Akt activation assay (PDK1-mediated activation, LANCE Ultra crosstide TR-FRET), Akt3; format: biochemical; conditions: read-out: Biological Assay 1 IC50 (nM) Akt3
T2 construct: unspecified tag, removed (detagged) (cleaved yes); purchased SignalChem and Proteros (Akt3); Merck Millipore (PDK1) 14-452 (PDK1); none given for Akt3
In short: as §1

[3] = target: T3, p-Akt1 in LNCaP cells (Homo sapiens, UniProt P31749); assay: Phospho-Akt cellular SureFire assay, p-Akt1 in LNCaP cells; format: cell-based; conditions: read-out: Biological Assay 2 IC50 (nM) Akt1 LNCaP
T3 construct: SureFire assays to detect cellular p-Akt1, p-Akt2 and p-Akt3 levels in WM115 cells (Akt2/3) and LNCaP cells (Akt1); endogenous in cells; host or cells: LNCaP (ECACC 89110211)
Excerpt: Biological Assay 2: Phospho-Akt (p-Akt) Cellular SureFire Assays
The following describes SureFire assays to detect cellular p-Akt1, p-Akt2 and p-Akt3 levels in WM115 cells (Akt2/3) and LNCaP cells (Akt1). In the case of Akt2 and Akt3, Streptavidin-coated donor beads capture a biotinylated anti-mouse antibody that in turn recognises a mouse total Akt antibody which is specific to each isoform. The protein A-conjugated acceptor beads capture an antibody that recognises the phosphoprotein. Similarly in the Akt1 kit, the donor and acceptor beads are used to capture each antibody pair consisting of an antibody that specifically recognises Akt1 as well as an antibody that recognises the phosphoprotein. In each case, close proximity of the beads allows energy transfer from donor to acceptor.
AlphaScreen® SureFire™ Phospho-Akt1 (pThr308) Kit from Perkin Elmer (TGRA2S10K)
LNCaP cells (ECACC, 89110211) cultured in RPMI-1640 culture media (Fisher, 10665193) supplemented with 2 mM L-glutamine, 1% sodium pyruvate and 10% FBS
Cell treatment: 1×10^5 WM115 cells or 5×10^4 LNCaP cells were seeded into each well of a 96 well poly-D-Lysine coated tissue culture plate and incubated overnight at 37° C.+5% CO2. Media was removed from cells and replaced with assay buffer consisting of the full culture media described above but with 0.1% FBS instead of 10% FBS. Only WM115 cells were stimulated at 37° C.+5% CO2 for 10 min with 5 μL insulin at a final concentration of 100 nM. Cells were incubated with 5 μL of test compound at a final DMSO concentration of 0.3% for 15 min at 37° C.+5% CO2. Cell lysis was carried out according to kit instructions.
Assay format (performed in subdued lighting): 4 μL cell lysate and 5 μL reaction buffer were incubated together in the dark at room temperature for 2 h. Reaction buffer was supplemented with a 1/5 dilution of activation buffer, a 1/50 dilution of acceptor beads and in the case of the custom kits, antibodies were added at dilutions of 1/20,000 for Akt2 and 1/2,000 for Akt3.
2 μL dilution buffer, supplemented with a 1/20 dilution of donor beads was added to each well and incubated for a further 2 h. Plates were read with the EnVision® Multilabel Plate Reader and using the AlphaScreen settings. Compound IC50 was determined using a 4-parameter equation.

[4] = target: T4, p-Akt2 in WM115 cells (Homo sapiens, UniProt P31751); assay: Phospho-Akt cellular SureFire assay, p-Akt2 in WM115 cells; format: cell-based; conditions: insulin stimulated, read-out: Biological Assay 2 IC50 (nM) Akt2 WM115
T4 construct: SureFire assays to detect cellular p-Akt1, p-Akt2 and p-Akt3 levels in WM115 cells (Akt2/3) and LNCaP cells (Akt1); endogenous in cells; host or cells: WM115 (ECACC 91061232), insulin-stimulated
In short: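 WM115 cells in 0.1% FBS medium stimulated 10 min with 100 nM insulin, then exposed to compound for 15 min at 37° C (0.3% DMSO final). Lysates assayed by AlphaScreen with anti-(pThr308)Akt and isoform-specific total Akt2 antibodies; IC50 from 4-parameter fit.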

[5] = target: T5, p-Akt3 in WM115 cells (Homo sapiens, UniProt Q9Y243); assay: Phospho-Akt cellular SureFire assay, p-Akt3 in WM115 cells; format: cell-based; conditions: insulin stimulated, read-out: Biological Assay 2 IC50 (nM) Akt3 WM115
T5 construct: SureFire assays to detect cellular p-Akt1, p-Akt2 and p-Akt3 levels in WM115 cells (Akt2/3) and LNCaP cells (Akt1); endogenous in cells; host or cells: WM115 (ECACC 91061232), insulin-stimulated
In short: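 WM115 cells were serum-reduced to 0.1% FBS, stimulated with 100 nM insulin for 10 min, then exposed to compound (0.3% DMSO) for 15 min at 37 °C. Lysates were assayed for Thr308-phosphorylated Akt3 by AlphaScreen SureFire using an isoform-specific total Akt3 capture antibody. IC50 was derived from a 4-parameter fit.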

T3 sequence (P31749 whole entry): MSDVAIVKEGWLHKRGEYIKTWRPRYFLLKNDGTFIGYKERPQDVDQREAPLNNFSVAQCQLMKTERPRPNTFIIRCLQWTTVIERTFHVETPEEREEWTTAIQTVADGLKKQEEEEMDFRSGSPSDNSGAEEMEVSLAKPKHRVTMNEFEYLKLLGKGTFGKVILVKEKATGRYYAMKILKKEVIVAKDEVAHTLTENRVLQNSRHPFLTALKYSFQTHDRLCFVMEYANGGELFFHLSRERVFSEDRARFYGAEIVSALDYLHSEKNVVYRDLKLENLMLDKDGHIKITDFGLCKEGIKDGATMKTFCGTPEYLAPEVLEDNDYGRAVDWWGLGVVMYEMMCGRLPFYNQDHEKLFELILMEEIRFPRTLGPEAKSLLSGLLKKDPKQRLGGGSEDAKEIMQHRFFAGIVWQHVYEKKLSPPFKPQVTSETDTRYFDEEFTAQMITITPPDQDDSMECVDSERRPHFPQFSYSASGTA
T5 sequence (Q9Y243 whole entry): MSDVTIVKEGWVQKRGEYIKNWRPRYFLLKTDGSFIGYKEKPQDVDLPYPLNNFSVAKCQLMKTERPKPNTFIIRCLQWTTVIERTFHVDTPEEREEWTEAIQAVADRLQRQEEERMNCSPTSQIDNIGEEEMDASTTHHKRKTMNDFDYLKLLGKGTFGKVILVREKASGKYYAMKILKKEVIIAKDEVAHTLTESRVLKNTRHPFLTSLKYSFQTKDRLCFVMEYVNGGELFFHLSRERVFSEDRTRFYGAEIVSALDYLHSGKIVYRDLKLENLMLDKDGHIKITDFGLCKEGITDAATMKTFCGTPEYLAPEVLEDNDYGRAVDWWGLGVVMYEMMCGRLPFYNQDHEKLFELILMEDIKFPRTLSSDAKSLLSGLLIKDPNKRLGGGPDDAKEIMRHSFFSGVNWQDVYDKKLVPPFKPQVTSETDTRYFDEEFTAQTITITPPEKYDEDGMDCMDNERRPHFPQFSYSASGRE
T2 sequence (Q9Y243 whole entry): as above
T4 sequence (P31751 whole entry): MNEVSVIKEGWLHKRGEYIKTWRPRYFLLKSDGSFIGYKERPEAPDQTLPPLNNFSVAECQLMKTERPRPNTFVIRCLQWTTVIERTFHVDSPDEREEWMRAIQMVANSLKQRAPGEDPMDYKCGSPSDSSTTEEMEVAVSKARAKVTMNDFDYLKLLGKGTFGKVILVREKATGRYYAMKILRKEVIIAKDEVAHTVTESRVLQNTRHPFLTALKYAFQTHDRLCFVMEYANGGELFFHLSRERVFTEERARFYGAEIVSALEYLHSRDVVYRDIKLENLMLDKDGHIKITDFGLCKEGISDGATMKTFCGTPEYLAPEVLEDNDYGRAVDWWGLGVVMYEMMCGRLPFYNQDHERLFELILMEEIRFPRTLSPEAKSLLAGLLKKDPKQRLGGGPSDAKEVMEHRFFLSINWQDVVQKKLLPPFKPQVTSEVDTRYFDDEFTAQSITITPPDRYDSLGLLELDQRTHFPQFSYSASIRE
T1 sequence (P31751 whole entry): as above

IC50 [1] [nM]	IC50 [2] [nM]	IC50 [3] [nM]	IC50 [4] [nM]	IC50 [5] [nM]	Compound
970	280	> 21000	6400	240	COC(=O)N(C)[C@H]1CC[C@H](C(C)C(=O)Nc2cnc(-c3ccc(C4(N)CCC4)cc3)c(-c3ccccc3)c2)CC1 (relative stereo) [Example 54, Methyl (trans-4-(1-((6-(4-(1-aminocyclobutyl)phenyl)-5-phenylpyridin-3-yl)amino)-1-oxopropan-2-yl)cyclohexyl)(methyl)carbamate]
540	92	9800	2500	100	CC(=O)N(C)[C@H]1CC[C@H](CC(=O)Nc2cc(-c3ccccc3)c(-c3ccc(C4(N)CCC4)cc3)cn2)CC1 [Example 33, N-(5-(4-(1-aminocyclobutyl)phenyl)-4-phenylpyridin-2-yl)-2-(trans-4-(N-methylacetamido)cyclohexyl)acetamide]
3100	2300	> 14000	4200	180	COCCN(C)[C@H]1CC[C@H](CC(=O)Nc2cnc(-c3ccc(C4(N)CCC4)cc3)c(-c3ccsc3)c2)CC1 [Example 39, N-(6-(4-(1-aminocyclobutyl)phenyl)-5-(thiophen-3-yl)pyridin-3-yl)-2-(trans-4-((2-methoxyethyl)(methyl)amino)cyclohexyl)acetamide]
910	240	> 27000	2700	110	NC1(c2ccc(-c3ncc(NC(=O)C[C@H]4CC[C@H](N5CCCC5=O)CC4)cc3-c3ccsc3)cc2)CCC1 [Example 48, N-(6-(4-(1-aminocyclobutyl)phenyl)-5-(thiophen-3-yl)pyridin-3-yl)-2-(trans-4-(2-oxopyrrolidin-1-yl)cyclohexyl)acetamide]
1300	59	> 27000	4300	120	COC(=O)N(C)[C@H]1CC[C@H](CC(=O)Nc2cc(-c3ccsc3)c(-c3ccc(C4(N)CCC4)cc3)nn2)CC1 [Example 81, Methyl (trans-4-(2-((6-(4-(1-aminocyclobutyl)phenyl)-5-(thiophen-3-yl)pyridazin-3-yl)amino)-2-oxoethyl)cyclohexyl)(methyl)carbamate]
77	13	4700	600	20	CC(C)C(=O)N(C)[C@H]1CC[C@H](CC(=O)Nc2cc(-c3ccccc3)c(-c3ccc([C@]4(N)C[C@](C)(O)C4)cc3)cn2)CC1 [Example 85, N-(trans-4-(2-((5-(4-(trans-1-amino-3-hydroxy-3-methylcyclobutyl)phenyl)-4-phenylpyridin-2-yl)amino)-2-oxoethyl)cyclohexyl)-N-methylisobutyramide]
78	11	2600	390	15	COC(=O)N[C@H]1CC[C@H](CC(=O)Nc2cc(-c3ccccc3)c(-c3ccc([C@]4(N)C[C@](C)(O)C4)cc3)cn2)CC1 [Example 103, Methyl (trans-4-(2-((5-(4-(trans-1-amino-3-hydroxy-3-methylcyclobutyl)phenyl)-4-phenylpyridin-2-yl)amino)-2-oxoethyl)cyclohexyl)carbamate]
380	17	8800	1200	16	CCC(=O)N(C)[C@H]1CC[C@H](CC(=O)Nc2cc(-c3ccsc3)c(-c3ccc([C@]4(N)C[C@](C)(O)C4)cc3)cn2)CC1 [Example 110, N-(trans-4-(2-((5-(4-(trans-1-amino-3-hydroxy-3-methylcyclobutyl)phenyl)-4-(thiophen-3-yl)pyridin-2-yl)amino)-2-oxoethyl)cyclohexyl)-N-methylpropionamide]
160	7	1800	390	11	COC(=O)N(C(C)C)[C@H]1CC[C@H](CC(=O)Nc2cnc(-c3ccc([C@]4(N)C[C@](C)(O)C4)cc3)c(-c3ccccc3)c2)CC1 [Example 121, Methyl (trans-4-(2-((6-(4-(trans-1-amino-3-hydroxy-3-methylcyclobutyl)phenyl)-5-phenylpyridin-3-yl)amino)-2-oxoethyl)cyclohexyl) (isopropyl)carbamate]
380	98	> 16000	2500	140	CCCC(=O)N(C)[C@H]1CC[C@H](CC(=O)Nc2cnc(-c3ccc(C4(N)CC4)cc3)c(-c3ccccc3)c2)CC1 [Example A33, N-(trans-4-(2-((6-(4-(1-aminocyclopropyl)phenyl)-5-phenylpyridin-3-yl)amino)-2-oxoethyl)cyclohexyl)-N-methylbutyramide]
130	8	5800	360	17	C[C@]1(O)C[C@@](N)(c2ccc(-c3cnc(NC(=O)C[C@H]4CC[C@H](N5CCOC5=O)CC4)cc3-c3ccccc3)cc2)C1 [Example A57, N-(5-(4-(trans-1-amino-3-hydroxy-3-methylcyclobutyl)phenyl)-4-phenylpyridin-2-yl)-2-(trans-4-(2-oxooxazolidin-3-yl)cyclohexyl)acetamide]
190	8	7900	480	11	CC(=O)N(C)[C@H]1CC[C@H](CC(=O)Nc2cc(-c3ccccc3)c(-c3ccc([C@]4(N)C[C@](C)(O)C4)cc3)cn2)CC1 [Example A58, N-(5-(4-(trans-1-amino-3-hydroxy-3-methylcyclobutyl)phenyl)-4-phenylpyridin-2-yl)-2-(trans-4-(N-methylacetamido)cyclohexyl)acetamide]
630	22	> 30000	15000	670	COC(=O)N(C)[C@H]1CC[C@H](CC(=O)Nc2cc(-c3ccccc3)c(-c3ccc([C@]4(N)C[C@H](F)C4)cc3)nn2)CC1 [Example A60, Methyl (trans-4-(2-((6-(4-(trans-1-amino-3-fluorocyclobutyl)phenyl)-5-phenylpyridazin-3-yl)amino)-2-oxoethyl)cyclohexyl)(methyl)carbamate]
850	40	> 30000	7400	250	COC(=O)N(C)[C@H]1CC[C@H](CC(=O)Nc2cnc(-c3ccc(C4(N)CCC4)cc3)c(-c3ccsc3)c2)CC1 [Example A68, Methyl (trans-4-(2-((6-(4-(1-aminocyclobutyl)phenyl)-5-(thiophen-3-yl)pyridin-3-yl)amino)-2-oxoethyl)cyclohexyl)(methyl)carbamate]
